Test results published in paper PMC12471299, “Secondary Metabolites of the Marine Sponge-Derived Fungus Aspergillus subramanianii 1901NT-1.40.2 and Their Antimicrobial and Anticancer Activities” (Marine Drugs, 2025).

What was measured:
[1] = test system: Staphylococcus aureus ATCC 21027; experiment: Biofilm formation assay (MTT); assay type: cell-based; settings: S. aureus, 18 h
Method in brief: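 Compound tested from 100 µM downward; 1% DMSO in PBS as negative control. Planktonic growth read as OD at 620 nm after 18 h; 18 h biofilm formation quantified with MTT at 570 nm. Values as percent of control, reported as minimal concentration giving 50% reduction (MIC50).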

MCF-7 cells = experiment: Proliferation assay (CFDA SE, flow cytometry); assay type: cell-based, human; settings: 5 µM, 48 h
Method: MCF-7 cells at a concentration of 1.2 × 10^4 cells/well were seeded in a 12-well plate for 24 h. After adhesion, the cells were stained with (5,6)-carboxyfluorescein succinimidyl ester (CFDA SE) dye (LumiTrace CFDA SE kit; Lumiprobe, Moscow, Russia). Thereafter, the compound (5 µM) was added to the wells.
After 48 h of incubation, the cells were washed twice with PBS, scraped, and collected. The intensity of CFDA fluorescence was analyzed using a NovoCyte flow cytometer (Agilent, Austin, TX, USA), and the data were analyzed as previously described.

SMILES	Biofilm formation, MIC50 [1] [µM]	percentage of cells in division 1 (MCF-7 cells) [%]	percentage of cells in division 2 (MCF-7 cells) [%]	percentage of cells in division 3 (MCF-7 cells) [%]
COC1=C(c2c[nH]c3ccccc23)C(=O)C(CC=C(C)C)=C(c2c[nH]c3ccccc23)C1=O [Compound 6, kumbicin D]	7.98 ± 0.57			
COc1c(OC)c(-c2c[nH]c3ccc(O)cc23)c(OC)c(OC)c1-c1c[nH]c2ccccc12 [Compound 8, petromurin C]		76.9	15.2	5.5
